From ChEMBL document CHEMBL1147199, “Exploration of the correlation between the structure, hemolytic activity, and cytotoxicity of steroid saponins” (Bioorg Med Chem, 2007) come the findings set out here.

Structures are written as SMILES.

Holding throughout (format): cell-based, Erythrocyte
The nature of data set [1]: Cytotoxicity against human erythrocytes assessed as hemolytic activity after 60 mins. As to conditions: read-out: HD50; call rule not given here.
Data set [2] in a line: Cytotoxicity against human erythrocytes assessed as hemolytic activity at 100 ug/ml after 60 mins. As to conditions: for Activity: erythrocyte, 1 h.
A short description of data set [3]: Cytotoxicity against human erythrocytes assessed as hemolytic activity at 75 ug/ml after 60 mins.
A short description of data set [4]: Cytotoxicity against human erythrocytes assessed as hemolytic activity at 40 ug/ml after 60 mins. As to conditions: read-out: Activity.

On to `CO[C@]1(CCC(C)CO[C@@H]2O[C@H](CO)[C@@H](O)[C@H](O)[C@H]2O)O[C@H]2C[C@H]3[C@@H]4CC=C5C[C@@H](O[C@@H]6O[C@H](CO)[C@@H](O[C@H]7O[C@H](C)[C@@H](O)[C@H](O)[C@@H]7O)[C@H](O)[C@H]6O[C@H]6O[C@H](C)[C@@H](O)[C@H](O)[C@@H]6O)[C@H](O)C[C@]5(C)[C@H]4CC[C@]3(C)[C@H]2[C@@H]1C` (stereo not given in full), for which the HC50 at 1 h in data set [1] was above 100 µM. In addition, the Activity result in data set [2] is listed as “Not Active”.

For `CCCCCCCCCCCC(=O)O[C@H]1C[C@@H]2[C@H](CC[C@]3(C)[C@@H]4[C@H](C[C@@H]23)O[C@]2(CC[C@@H](C)CO2)[C@H]4C)[C@@]2(C)C[C@@H](O)[C@H](O[C@@H]3O[C@H](CO)[C@@H](O[C@H]4O[C@H](C)[C@@H](O)[C@H](O)[C@@H]4O)[C@H](O)[C@H]3O[C@H]3O[C@H](C)[C@@H](O)[C@H](O)[C@@H]3O)C[C@H]12`, the HC50 at 1 h in data set [1] was above 100 µM. Besides, in data set [2] (human erythrocytes, read-out: Activity), the hemolysis at 1 h, 100 ug/ml is 8.5%.

With `CO[C@]1(CCC(C)CS[C@@H]2O[C@H](CO)[C@@H](O)[C@H](O)[C@H]2O)O[C@H]2C[C@H]3[C@@H]4CC=C5C[C@@H](O[C@@H]6O[C@H](CO)[C@@H](O[C@H]7O[C@H](C)[C@@H](O)[C@H](O)[C@@H]7O)[C@H](O)[C@H]6O[C@H]6O[C@H](C)[C@@H](O)[C@H](O)[C@@H]6O)[C@H](O)C[C@]5(C)[C@H]4CC[C@]3(C)[C@H]2[C@@H]1C` (stereo not given in full), the HC50 at 1 h in data set [1] is above 100 µM. Also, the Activity entry in data set [2] is listed as “Not Active”.

Take `CC(=O)OC[C@H]1O[C@@H](O[C@H]2CC[C@@]3(C)C(=CC[C@H]4[C@@H]5C[C@@H]6O[C@]7(CC[C@@H](C)CO7)[C@@H](C)[C@@H]6[C@@]5(C)CC[C@@H]43)C2)[C@H](O[C@@H]2O[C@@H](C)[C@H](O)[C@@H](O)[C@H]2O)[C@@H](O)[C@@H]1O`: the hemolysis at 1 h, 75 ug/ml in data set [3] (human, human erythrocytes, read-out: Activity) was found to be 29%. Also, in data set [1], the HC50 at 1 h was above 75 µM.

For `CCCCCCCCCCCCCCCC(=O)O[C@H]1C[C@@H]2[C@H](CC[C@]3(C)[C@@H]4[C@H](C[C@@H]23)O[C@]2(CC[C@@H](C)CO2)[C@H]4C)[C@@]2(C)C[C@@H](O)[C@H](O[C@@H]3O[C@H](CO)[C@@H](O[C@H]4O[C@H](C)[C@@H](O)[C@H](O)[C@@H]4O)[C@H](O)[C@H]3O[C@H]3O[C@H](C)[C@@H](O)[C@H](O)[C@@H]3O)C[C@H]12`, in data set [1], the HC50 at 1 h is above 100 µM. The Activity entry in data set [2] is reported as “Not Active”.

Turning to `CC(=O)OC[C@H]1O[C@@H](O[C@H]2CC[C@@]3(C)C(=CC[C@H]4[C@@H]5C[C@@H]6O[C@]7(CC[C@@H](C)CO7)[C@@H](C)[C@@H]6[C@@]5(C)CC[C@@H]43)C2)[C@H](O[C@@H]2O[C@@H](C)[C@H](OC(C)=O)[C@@H](O)[C@H]2O)[C@@H](O)[C@@H]1O`, in data set [3] (erythrocyte), the hemolysis % was 8%. Moreover, in data set [1], the HC50 at 1 h is above 75 µM.

As for `C[C@@H]1CC[C@@]2(OC1)O[C@H]1C[C@H]3[C@@H]4CC=C5C[C@@H](O[C@@H]6O[C@H](CO)[C@@H](O)[C@H](O)[C@H]6O)CC[C@]5(C)[C@H]4CC[C@]3(C)[C@H]1[C@@H]2C` [DISOGLUSIDE], the HC50 at 1 h in data set [1] was above 100 µM. Also, the Activity result in data set [2] was “Not Active”.

As to `CCCCCCCCCCCCCC(=O)NCCO[C@H]1[C@H](O)[C@H](O)[C@@H](O[C@H]2[C@H](O)[C@@H](O[C@H]3O[C@H](C)[C@@H](O)[C@H](O)[C@@H]3O)[C@H](O[C@H]3CC[C@@]4(C)C(=CC[C@H]5[C@@H]6C[C@@H]7O[C@]8(CC[C@@H](C)CO8)[C@@H](C)[C@@H]7[C@@]6(C)CC[C@@H]54)C3)O[C@@H]2CO)O[C@@H]1C`, in data set [1], the HC50 at 1 h is above 50 µg/mL.

Take `C[C@@H]1CC[C@@]2(OC1)O[C@H]1C[C@H]3[C@@H]4CC=C5C[C@@H](O[C@@H]6O[C@H](CO)[C@@H](O[C@H]7O[C@H](C)[C@@H](OCCNS(=O)(=O)c8cccc9c(N(C)C)cccc89)[C@H](O)[C@@H]7O)[C@H](O)[C@H]6O[C@H]6O[C@H](C)[C@@H](O)[C@H](O)[C@@H]6O)CC[C@]5(C)[C@H]4CC[C@]3(C)[C@H]1[C@@H]2C`: the HC50 at 1 h in data set [1] is 1.3 µM.

With `COc1ccc(C(=O)NCCO[C@H]2[C@H](O)[C@H](O)[C@@H](O[C@H]3[C@H](O)[C@@H](O[C@H]4O[C@H](C)[C@@H](O)[C@H](O)[C@@H]4O)[C@H](O[C@H]4CC[C@@]5(C)C(=CC[C@H]6[C@@H]7C[C@@H]8O[C@]9(CC[C@@H](C)CO9)[C@@H](C)[C@@H]8[C@@]7(C)CC[C@@H]65)C4)O[C@@H]3CO)O[C@@H]2C)cc1`, the HC50 at 1 h in data set [1] was 4.5 µM.

As for `C/C=C/C=C/C(=O)NCCO[C@H]1[C@H](O)[C@H](O)[C@@H](O[C@H]2[C@H](O)[C@@H](O[C@H]3O[C@H](C)[C@@H](O)[C@H](O)[C@@H]3O)[C@H](O[C@H]3CC[C@@]4(C)C(=CC[C@H]5[C@@H]6C[C@@H]7O[C@]8(CC[C@@H](C)CO8)[C@@H](C)[C@@H]7[C@@]6(C)CC[C@@H]54)C3)O[C@@H]2CO)O[C@@H]1C`, the HC50 at 1 h in data set [1] stood at 1.6 µM.

Regarding `C[C@@H]1CC[C@@]2(OC1)O[C@H]1C[C@H]3[C@@H]4CC=C5C[C@@H](O[C@@H]6O[C@H](CNC(=O)OCC7c8ccccc8-c8ccccc87)[C@@H](O[C@H]7O[C@H](C)[C@@H](O)[C@H](O)[C@@H]7O)[C@H](O)[C@H]6O[C@H]6O[C@H](C)[C@@H](O)[C@H](O)[C@@H]6O)CC[C@]5(C)[C@H]4CC[C@]3(C)[C@H]1[C@@H]2C`, the HC50 at 1 h in data set [1] amounted to 9 µM.

With `CCCCCC(=O)O[C@H]1C[C@@H]2[C@H](CC[C@]3(C)[C@@H]4[C@H](C[C@@H]23)O[C@]2(CC[C@@H](C)CO2)[C@H]4C)[C@@]2(C)C[C@@H](O)[C@H](O[C@@H]3O[C@H](CO)[C@@H](O[C@H]4O[C@H](C)[C@@H](O)[C@H](O)[C@@H]4O)[C@H](O)[C@H]3O[C@H]3O[C@H](C)[C@@H](O)[C@H](O)[C@@H]3O)C[C@H]12`, the HC50 at 1 h in data set [1] was 7.6 µM.

On to `C[C@@H]1CC[C@@]2(OC1)O[C@H]1C[C@H]3[C@@H]4CC=C5C[C@@H](O[C@@H]6O[C@H](CO[C@@H]7O[C@@H](C)[C@H](O)[C@@H](O)[C@H]7O)[C@@H](O)[C@H](O)[C@H]6O)CC[C@]5(C)[C@H]4CC[C@]3(C)[C@H]1[C@@H]2C`, for which, in data set [1], the HC50 at 1 h came to 28.6 µM.

As to `CC(=O)OC[C@H]1O[C@H](O[C@H]2[C@H](O)[C@@H](O[C@H]3O[C@H](C)[C@@H](O)[C@H](O)[C@@H]3O)[C@H](O[C@H]3CC[C@@]4(C)C(=CC[C@H]5[C@@H]6C[C@@H]7O[C@]8(CC[C@@H](C)CO8)[C@@H](C)[C@@H]7[C@@]6(C)CC[C@@H]54)C3)O[C@@H]2CO)[C@@H](O)[C@@H]1OC(C)=O`, the HC50 at 1 h in data set [1] was found to be 2.7 µM.

For the molecule `C[C@@H]1CC[C@@]2(OC1)O[C@H]1C[C@H]3[C@@H]4CC[C@H]5C[C@@H](O[C@@H]6O[C@H](CO)[C@@H](O[C@H]7O[C@H](C)[C@@H](O)[C@H](O)[C@@H]7O)[C@H](O)[C@H]6O[C@H]6O[C@H](C)[C@@H](O)[C@H](O)[C@@H]6O)[C@H](O)C[C@]5(C)[C@H]4CC[C@]3(C)[C@H]1[C@@H]2C`, the HC50 at 1 h in data set [1] came to 13.1 µM.

As for `C[C@@H]1CC[C@@]2(OC1)O[C@H]1C[C@H]3[C@@H]4CC[C@H]5C[C@@H](O[C@@H]6O[C@H](CO)[C@H](O)[C@H](O)[C@H]6O[C@H]6O[C@H](C)[C@@H](O)[C@H](O)[C@@H]6O)[C@H](O)C[C@]5(C)[C@H]4CC[C@]3(C)[C@H]1[C@@H]2C`, the HC50 at 1 h in data set [1] came out at 7.5 µM.

`C[C@@H]1CC[C@@]2(OC1)O[C@H]1C[C@H]3[C@@H]4CC=C5C[C@@H](O[C@@H]6O[C@H](CO)[C@@H](O)[C@H](O[C@@H]7O[C@@H](C)[C@H](O)[C@@H](O)[C@H]7O)[C@H]6O)CC[C@]5(C)[C@H]4CC[C@]3(C)[C@H]1[C@@H]2C` [POLYPHILLIN C]: the hemolysis at 1 h, 40 ug/ml in data set [4] is 15%. The HC50 at 1 h in data set [1] was above 40 µM.

Consider `CC(=O)O[C@H]1[C@H](O)[C@H](O)[C@@H](O[C@H]2[C@H](O)[C@@H](O[C@H]3O[C@H](C)[C@@H](O)[C@H](O)[C@@H]3O)[C@H](O[C@H]3CC[C@@]4(C)C(=CC[C@H]5[C@@H]6C[C@@H]7O[C@]8(CC[C@@H](C)CO8)[C@@H](C)[C@@H]7[C@@]6(C)CC[C@@H]54)C3)O[C@@H]2CO)O[C@@H]1C`, for which the HC50 at 1 h in data set [1] was determined as 3.2 µM.

Turning to `CCCCCCCCCCCCCCCCCC(=O)NC[C@H]1O[C@@H](O[C@H]2CC[C@@]3(C)C(=CC[C@H]4[C@@H]5C[C@@H]6O[C@]7(CC[C@@H](C)CO7)[C@@H](C)[C@@H]6[C@@]5(C)CC[C@@H]43)C2)[C@H](O[C@H]2O[C@H](C)[C@@H](O)[C@H](O)[C@@H]2O)[C@@H](O)[C@@H]1O[C@H]1O[C@H](C)[C@@H](O)[C@H](O)[C@@H]1O`, the HC50 at 1 h in data set [1] was above 50 µg/mL.

For the molecule `CCCCCCCCCCCCCC(=O)NC[C@H]1O[C@@H](O[C@H]2CC[C@@]3(C)C(=CC[C@H]4[C@@H]5C[C@@H]6O[C@]7(CC[C@@H](C)CO7)[C@@H](C)[C@@H]6[C@@]5(C)CC[C@@H]43)C2)[C@H](O[C@H]2O[C@H](C)[C@@H](O)[C@H](O)[C@@H]2O)[C@@H](O)[C@@H]1O[C@H]1O[C@H](C)[C@@H](O)[C@H](O)[C@@H]1O`, the HC50 at 1 h in data set [1] was above 50 µg/mL.

With `C[C@@H]1CC[C@@]2(OC1)O[C@H]1C[C@H]3[C@@H]4CC[C@H]5C[C@@H](O[C@@H]6O[C@H](CO)[C@@H](O[C@H]7O[C@H](C)[C@@H](O)[C@H](O)[C@@H]7O)[C@H](O)[C@H]6O[C@H]6O[C@H](C)[C@@H](O)[C@H](O)[C@@H]6O)CC[C@]5(C)[C@H]4CC[C@]3(C)[C@H]1[C@@H]2C`, the HC50 at 1 h in data set [1] was determined as 3 µM.
